Source: patent US20060025485A1, “Hydroxybenazamide compounds for treatment of cancer” (priority 2004, published 2006)
Each block holds one compound with its values, some of them ahead of it.

Columns and labels:
[1] = in vitro; conditions: human, BON cells
Method: (§1) Cells tested (H727 and BON) were harvested by trypsinization and plated at a cell density of 3,000 cells/well of each microtiter plate. Cells were grown for 4 hrs at 37° C., with 5% CO2 in a humidified incubator to allow cell attachment to occur before compound addition. […] 10 μl of each compound stock was added to duplicate microtiter plates for each cell line. The final concentration of DMSO in all wells was 1%. To test 200 μM, 2% DMSO was added to each well. Data was compared to the effect of 2% DMSO. All compounds were tested in duplicate. Cells were incubated with the test compounds for 72 hrs before reading the assay. Then processing and calculation were performed according to manufacturer's directions for Cell Titer Glo Assay (Promega, Madison, Wis.).

[2] = in vitro; conditions: human, H727 cells
Method: as §1

[3] = tested on: Chromogranin A; test: Western analysis of chromogranin A, BON-raf cells treated with estradiol; assay type: cell-based, human
Method: Usually, carcinoid tumors secrete high levels of both chromogranin A and serotonin due to disregulated hormone production. Similarly, BON cells treated with control or estradiol, and BON-raf cells treated with control had high levels of the NE marker chromogranin A as determined by Western analysis. […] In addition, BON and BON-raf cells were tested for serotonin secretion by ELISA after treatment with control or estradiol.
Cell culture. Human pulmonary carcinoid cells (NCI-H727) were obtained from American Type Culture Collection (Manassas, Va.) and human pancreatic carcinoid tumor cells, BON a generous gift of Drs. Evers and Townsend (Parekh et al., 1994), were maintained in RPMI 1640 and D-MEM-F12 media (Life Technologies, Rockville, Md.) respectively supplemented with 10% Fetal Bovine Serum (Sigma, St. Louis, Mo.), 100 IU/ml penicillin and 100 μg/ml streptomycin (Life Technologies) in a humidified atmosphere of 5% CO2 in air at 37° C. The maintenance of BON-raf cells and the activation of Raf-1 were followed as described previously (Sippel et al., 2003; Sippel and Chen, 2002; McMahon, 2001).
Western blot analysis. Cellular extracts were prepared and quantified by BCA protein assay kit (Pierce, Rockford, Ill.) as previously described (Sippel et al., 2003). 30-50 μg of denatured proteins from each sample underwent electrophoresis on a SDS-polyacrylamide gel and transferred to a nitrocellulose membranes (Schleicher and Schuell, Keene, N.H.). Membranes were blocked for 1 hr in milk solution (1×PBS, 5% non-fat dry milk, 0.05% Tween-20) and then incubated at 4° C. overnight with primary antibodies. The following primary antibody dilutions were used: phospho-ERK 1/2 (1:1,000); phospho-MEK (1:1,000); phospho-Raf-1 (Serine338) (1:1,000); p21 and p18, (1:1,000); (Cell Signal Technology, Beverly, Mass.), Chromogranin A (1:2,000; Zymed Laboratories, San Francisco, Calif.); MASH-1 (1:1000, BD Pharmingen) and G3PDH (1:10,000; Trevigen, Gaithersburg, Md.). After primary antibody incubation, membranes were washed 3×5 min in PBS-T wash buffer (1×PBS, 0.05% Tween 20). […]

[4] = tested on: c-Raf as well as MEK and ERK; conditions: human monocytic THP-1 cells; cited from earlier work

IC50 at 72 h [1]: 1400 nM
IC50 at 72 h [2]: 1100 nM
SMILES: COc1cccc2c1C(=O)c1c(O)c3c(c(O)c1C2=O)C[C@@](O)(C(=O)CO)C[C@@H]3O[C@H]1C[C@H](N)[C@H](O)[C@H](C)O1 [Doxorubicin]

SMILES: C[C@]12CC[C@@H]3c4ccc(O)cc4CC[C@H]3[C@@H]1CC[C@@H]2O [Estradiol]
reduction of chromogranin A levels ([3]; 2 days): 31%
reduction of chromogranin A levels ([3]; 4 days): 68%
reduction of chromogranin A levels ([3]; 6 days): 50%

SMILES: COc1nccc(-c2c(-c3ccc(F)cc3)ncn2C2CCC(O)CC2)n1 (stereo not drawn) [SB239063]
activation of c-Raf, MEK and ERK [4]: activates c-Raf as well as MEK and ERK
